Measurements: PubChem BioAssay (NCI)
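1) Cells in 96-well plates. 2) Compound, 48 h, 5 concentrations. 3) Linear interpolation between surrounding doses. 4) Unreached endpoint = highest concentration. At the GI50, growth is halved. TGI: total growth inhibition.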

What was measured:
Test in all cases: inhibition of tumour cell growth, NCI panel, 48 h
A498 renal = tested on: A498 renal
COLO 205 colon = tested on: COLO 205 colon
EKVX NSCLC = tested on: EKVX NSCLC
MCF7 breast = tested on: MCF7 breast
MDA-MB-435 = tested on: MDA-MB-435
OVCAR-8 ovarian = tested on: OVCAR-8 ovarian
T-47D breast = tested on: T-47D breast
TK-10 renal = tested on: TK-10 renal
UACC-257 melanoma = tested on: UACC-257 melanoma
UACC-62 melanoma = tested on: UACC-62 melanoma

SMILES	TGI (A498 renal) [µM]	TGI (COLO 205 colon) [µM]	TGI (EKVX NSCLC) [µM]	TGI (MCF7 breast) [µM]	TGI (MDA-MB-435) [µM]	TGI (OVCAR-8 ovarian) [µM]	TGI (T-47D breast) [µM]	TGI (TK-10 renal) [µM]	TGI (UACC-257 melanoma) [µM]	TGI (UACC-62 melanoma) [µM]	GI50 (A498 renal) [µM]	GI50 (COLO 205 colon) [µM]	GI50 (EKVX NSCLC) [µM]	GI50 (MCF7 breast) [µM]	GI50 (MDA-MB-435) [µM]	GI50 (OVCAR-8 ovarian) [µM]	GI50 (T-47D breast) [µM]	GI50 (TK-10 renal) [µM]	GI50 (UACC-257 melanoma) [µM]	GI50 (UACC-62 melanoma) [µM]
CC1(C)OC2C(=O)C=C(COCc3ccccc3)C2O1 (stereo unspecified)	> 100	41	> 100	> 100	71.2	> 100	56.3	> 100	> 100	28.6	–	–	–	–	–	–	–	–	–	–
COc1cc(/C=C/[N+](=O)[O-])cc(Br)c1OC	8.53	4.58	14.6	7.43	6.15	13.1	8.48	11.5	10.4	12.2	2.03	2.17	3.32	1.93	2.33	3.54	2.57	3.52	2.88	3.49
CCCCCn1sc(=O)n(Cc2ccc(CNC(=O)OCc3ccc4cccc(O)c4n3)cc2)c1=O	4.58	3.75	5.41	3.7	2.5	9.89	4.52	3.05	3.08	2.87	1.73	1.59	2.01	1.34	1.17	1.85	1.79	1.19	1.57	1.51
C[C@@H]1O[C@@H](O[C@H]2CC[C@@]3(C)[C@H](CCC4[C@@H]3C(O)C[C@]3(C)[C@@H](c5ccc(=O)oc5)CC[C@]43O)C2)[C@H](O)[C@H](O)[C@H]1O (stereo partly specified)	0.0357	0.013	0.00766	0.0659	0.0131	0.00801	0.0241	0.00555	0.0121	0.0153	0.00859	0.00664	0.00379	0.00828	0.00633	0.00415	< 0.00325	< 0.00325	0.00589	0.00698
COc1ccc(-c2cc(=O)c3c(OC)c(OC)c(OC)c(OC)c3o2)cc1	83.9	> 100	> 100	> 100	> 100	> 100	59.5	> 100	> 100	84	–	–	–	–	–	–	–	–	–	–
COC(=O)c1nc(-c2ccccc2)oc1S(=O)(=O)n1nc(C)cc1N	70.2	3.92	43.9	27.5	25.3	50.3	18.3	24.6	39.7	28.1	18.7	2.11	16.7	6.95	11.4	19.7	3.84	11.3	18.6	13.7
O=C(Nc1cccc(Nc2ncc(Br)c(NCCc3cnc[nH]3)n2)c1)N1CCCC1	16.6	4.06	38.1	17.7	18.5	24.8	25.5	20	37.5	22.4	4.31	0.562	6.07	1.19	2.62	8.44	4.43	3.87	12	6.12
CC(=O)Oc1ccccc1C(=O)/C=C/c1cccc([N+](=O)[O-])c1	17.6	11.5	26.6	10.6	3.55	10.4	44	–	20.8	12.2	2.54	3.29	11.3	1.99	1.65	3.11	10.8	–	6.99	3.29
Cc1ccc(NC(=O)c2ccccc2C(=O)O)cc1C	> 100	> 100	> 100	> 100	> 100	> 100	> 100	> 100	> 100	> 100	–	–	–	–	–	–	–	–	–	–
CCN1C(=O)N(CC)C2C1NN=c1s/c(=C3\C(=O)N(CCc4ccccc4)c4ccccc43)c(=O)n12 (stereo unspecified)	0.603	1.8	> 100	> 67.7	0.684	> 43.1	> 23.9	29.2	> 100	11.5	0.115	0.322	0.641	0.353	0.245	0.74	1.19	4.22	3.77	0.637
N#CN1CC[C@H](C(=O)Nc2ncc(-c3ccncc3)s2)C1	0.596	0.045	4.4	> 70.2	5.52	> 100	1.24	6.18	6.91	1.32	0.121	< 0.0141	0.0642	< 0.0109	< 0.0148	0.0596	< 0.0177	0.109	0.605	< 0.0172
BrCc1ccc(CBr)cc1	38.1	> 100	25.7	> 21.7	15.6	20.9	48.8	5.99	38.9	22.3	18.3	0.146	10.5	1.89	5.56	5.52	12.7	1.58	14	5.13
CN(C)CC1CCCC1=O (stereo unspecified)	27.3	1.84	3.59	7.03	8.77	8.94	15.2	8.04	3.5	11.2	–	–	–	–	–	–	–	–	–	–
O=C(O)COc1c(Cl)cc(Cl)c2cccnc12	> 100	> 100	> 100	> 100	> 100	> 100	> 100	> 100	> 100	> 100	–	–	–	–	–	–	–	–	–	–
CC1=CC(=O)C(O)C2(C)C1CC(O)C13COC4(C)C(OC(=O)C41)C(O)C23 (stereo unspecified)	54.4	77.1	41.6	21.9	43	25.2	66.5	44.3	38.8	32.3	18	12.1	11.9	3.95	6.86	5.57	17.6	12.1	9.57	8.02
Cc1nc2ccccc2c(/C=C/c2ccc(Br)cc2)c1C(=O)/C=C/c1ccccc1	3.28	3.47	3.32	2.72	4.69	3.48	3.63	3.87	3.22	3.01	1.75	1.51	1.75	0.895	1.94	1.57	1.46	2.15	1.68	1.54
CSC(=S)N/N=C(\C)c1cccc(C)n1	10.5	2.82	> 43.3	> 13.2	> 35.7	28.1	> 67.5	33.9	21.9	3.67	–	–	–	–	–	–	–	–	–	–
O=c1[nH]cnc2c(C3NC(CO)C(O)C3O)c[nH]c12 (stereo unspecified)	> 100	> 100	> 100	> 100	> 100	> 100	> 100	> 100	> 100	> 100	> 100	> 100	> 100	> 100	> 100	> 100	> 100	> 100	> 100	> 100
C#CCOc1cccc(Nc2ncnc3c(NC(=O)CCl)cccc23)c1	> 100	38.4	54.1	48.3	> 100	> 100	39.3	> 100	> 100	> 100	> 100	18.7	20	14.5	26.2	31.6	15.7	40.1	45	27
CC(C)(C)c1ccc(C(=O)Nc2sc3c(c2C(N)=O)CCC(=O)C3)cc1	9.04	1.63	4.82	2.96	3.7	4.85	1.65	4.77	4.19	2.01	2.83	0.617	1.97	0.402	1.67	0.831	0.261	1.42	1.72	0.498
CN(CCCCCl)P(=O)(OCCS(=O)(=O)CC(NC(=O)CCC(N)C(=O)O)C(=O)NC(C(=O)O)c1ccccc1)OCC1OC(n2cc(F)c(=O)[nH]c2=O)CC1O (stereo unspecified)	> 100	> 100	> 100	–	> 100	> 100	> 100	> 21.4	> 100	> 100	–	10.1	39.2	< 0.01	2.27	0.274	5.65	0.944	4.58	> 100
N#Cc1c(N)[nH]c2ccc(Sc3ccccc3)cc12	2.04	1.34	11.7	16.6	0.146	12	23	20.8	29.5	2.5	–	–	–	–	–	–	–	–	–	–
COc1ccc2cc(-c3c(-c4ccncc4)nc(-c4ccc(S(C)=O)cc4)n3C)ccc2c1 (stereo unspecified)	> 25	> 25	> 25	> 25	> 25	> 25	24.6	> 25	> 25	> 25	> 7.37	17	15.6	> 19.6	14.6	17.9	7.92	> 21.8	> 25	21
CN(C)c1ccc(N=Nc2ccncc2)cc1	> 100	> 100	> 100	> 100	> 100	> 100	> 100	> 100	> 100	> 100	–	–	–	–	–	–	–	–	–	–
CC1(C)CCC[C@]2(C)[C@@H](C=O)C(C=O)=CC[C@@H]12	> 100	36.5	> 100	31	> 100	31.2	60.3	74	31.5	34.7	–	–	–	–	–	–	–	–	–	–
Nc1ccccc1SCc1csc(-c2ccc(Cl)cc2)n1	55.9	34.6	86.9	71.8	37.8	> 100	23.4	> 100	> 77.7	> 64	–	–	–	–	–	–	–	–	–	–
CC(=O)c1c(C(F)(F)F)n([O-])c2ccc(C)cc2[n+]1=O	18.9	> 43.8	4.59	> 100	35.9	> 100	> 67.1	> 50.5	> 46.8	3.34	4.42	3.35	1.19	4	6.99	3.82	6.52	5.07	4.42	1.31
N/N=C1\CC(=O)NC(=O)N1	> 100	> 100	> 100	> 100	> 100	> 100	> 100	> 100	> 100	> 100	–	–	–	–	–	–	–	–	–	–
COc1ccc(OC)c(C2SCC(=O)N2NC(=O)C(O)c2ccccc2)c1 (stereo unspecified)	> 100	> 100	> 100	> 100	> 100	> 100	> 100	> 100	> 100	> 100	> 100	> 100	> 100	> 100	> 100	> 100	> 100	> 100	> 100	> 100
